The source of these data is ChEMBL document CHEMBL1141197, “Interaction of papain-like cysteine proteases with dipeptide-derived nitriles” (J Med Chem, 2005).

For assay [1], the target named is Procathepsin L (Homo sapiens, UniProt P07711). The experiment in a line: Inhibitory activity against human cathepsin L using Z-Phe-Arg-NHMec substrate.
A further assay addresses T1, Cathepsin K (Homo sapiens, UniProt P43235).
T1 sequence (P43235 whole entry): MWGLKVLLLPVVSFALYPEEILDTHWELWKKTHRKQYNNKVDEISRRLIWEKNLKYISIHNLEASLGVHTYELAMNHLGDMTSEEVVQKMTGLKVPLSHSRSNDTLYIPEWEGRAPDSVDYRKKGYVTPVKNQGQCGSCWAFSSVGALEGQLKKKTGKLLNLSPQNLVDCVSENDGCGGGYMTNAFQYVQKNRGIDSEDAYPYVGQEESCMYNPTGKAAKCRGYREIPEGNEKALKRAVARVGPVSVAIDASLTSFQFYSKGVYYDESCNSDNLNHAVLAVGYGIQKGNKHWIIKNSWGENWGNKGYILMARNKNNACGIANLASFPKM
Kind of assay: Inhibitory activity against human cathepsin K using Z-Leu-Arg-NHMec substrate.

In a further assay the target is T2, Papain (Carica papaya, UniProt P00784).
T2 sequence (P00784 whole entry): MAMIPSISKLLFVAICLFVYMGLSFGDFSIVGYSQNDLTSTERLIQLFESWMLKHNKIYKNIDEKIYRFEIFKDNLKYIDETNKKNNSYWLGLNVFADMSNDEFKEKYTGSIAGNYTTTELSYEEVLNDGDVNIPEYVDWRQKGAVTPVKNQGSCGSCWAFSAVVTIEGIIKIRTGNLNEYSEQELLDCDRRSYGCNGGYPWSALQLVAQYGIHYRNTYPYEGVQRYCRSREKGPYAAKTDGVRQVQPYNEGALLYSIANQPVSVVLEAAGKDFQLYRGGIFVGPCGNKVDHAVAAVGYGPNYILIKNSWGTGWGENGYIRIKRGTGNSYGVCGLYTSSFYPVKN
Kind of assay: Inhibitory activity against papain using Z-Phe-Arg-NHNp substrate.

Assay [2] has as its target Procathepsin L (Bos taurus, UniProt P25975). The experiment in a line: Inhibitory activity against bovine cathepsin L using Z-Phe-Arg-NHMec substrate.
A further assay deals with Cathepsin S (Homo sapiens, UniProt P25774). The experiment in a line: Inhibitory activity against human cathepsin S using Z-Val-Val-Arg-NHMec substrate.

Molecules are shown by their SMILES.

Chain of Procathepsin L (Bos taurus, UniProt P25975) (P25975 whole entry): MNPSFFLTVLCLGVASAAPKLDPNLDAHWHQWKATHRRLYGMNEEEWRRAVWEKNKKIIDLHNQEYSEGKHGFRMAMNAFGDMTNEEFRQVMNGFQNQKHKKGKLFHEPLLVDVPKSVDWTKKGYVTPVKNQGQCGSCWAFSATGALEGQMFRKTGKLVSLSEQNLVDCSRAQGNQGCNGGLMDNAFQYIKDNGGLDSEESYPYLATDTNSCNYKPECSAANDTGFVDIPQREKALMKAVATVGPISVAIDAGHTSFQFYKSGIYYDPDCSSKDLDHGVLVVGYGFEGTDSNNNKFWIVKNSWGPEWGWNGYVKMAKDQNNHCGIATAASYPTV
Chain of Cathepsin S (P25774 whole entry): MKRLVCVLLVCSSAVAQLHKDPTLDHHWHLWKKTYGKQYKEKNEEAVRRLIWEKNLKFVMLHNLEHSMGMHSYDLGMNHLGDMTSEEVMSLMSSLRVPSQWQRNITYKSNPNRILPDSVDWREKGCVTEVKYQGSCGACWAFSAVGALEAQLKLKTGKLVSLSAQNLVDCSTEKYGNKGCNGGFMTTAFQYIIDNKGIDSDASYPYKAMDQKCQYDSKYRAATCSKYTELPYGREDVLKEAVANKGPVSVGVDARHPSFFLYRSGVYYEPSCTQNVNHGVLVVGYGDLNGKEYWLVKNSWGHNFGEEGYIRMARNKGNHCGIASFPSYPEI
Chain of Procathepsin L (Homo sapiens, UniProt P07711) (P07711 whole entry): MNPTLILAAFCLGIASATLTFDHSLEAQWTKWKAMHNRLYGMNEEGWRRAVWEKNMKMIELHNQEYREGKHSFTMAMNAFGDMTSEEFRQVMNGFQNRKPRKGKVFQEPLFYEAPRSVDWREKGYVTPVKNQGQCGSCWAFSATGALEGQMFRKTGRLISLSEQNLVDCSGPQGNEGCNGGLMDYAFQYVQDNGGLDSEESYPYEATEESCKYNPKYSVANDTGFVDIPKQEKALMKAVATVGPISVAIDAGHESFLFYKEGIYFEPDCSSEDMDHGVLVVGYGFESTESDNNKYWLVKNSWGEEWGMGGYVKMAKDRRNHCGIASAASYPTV

Regarding `N#CCNC(=O)[C@H](Cc1ccccc1)NC(=O)OCc1ccccc1`, the Ki (in general, the equilibrium dissociation constant of an inhibitor or competing ligand from its target) on Procathepsin L [1] worked out at 0.23 µM; on Cathepsin K, 0.26 µM; at Papain, 0.36 µM; on Procathepsin L [2] it was 0.18 µM; at Cathepsin S, 0.51 µM.
For `CC(C)(C)OC(=O)N[C@@H](Cc1c[nH]c2ccccc12)C(=O)NCC#N` the same measures were 0.43 µM, 29 µM, 7.6 µM, 0.35 µM and 0.24 µM.
The like results for `CC(C)(C)OC(=O)N[C@@H](Cc1csc2ccccc12)C(=O)NCC#N` were, in that order, 0.29 µM, 34 µM, 7.4 µM, 0.32 µM and 0.3 µM.
In the case of `CC(C)(C)OC(=O)N1CCC[C@H]1C(=O)NCC#N`, the inhibition constant (Ki) on Cathepsin K is over 100 µM; at Papain, 537 µM; on Procathepsin L [2], over 100 µM; at Cathepsin S it was over 100 µM.
Turning to `N#CCNC(=O)[C@H](Cc1ccccc1)NC(=O)c1ccc(-c2ccccc2)cc1`, the Ki was determined as 0.3 µM at Cathepsin K, 0.016 µM at Papain, 0.55 µM on Procathepsin L [2] and 0.24 µM on Cathepsin S.
The like results for `CC(C)(C)OC(=O)N[C@@H](Cc1ccccc1F)C(=O)NCC#N` were, in that order, 3.3 µM, 0.4 µM, 0.47 µM and 0.77 µM.
The like results for `CC(C)(C)OC(=O)N[C@@H](CC1CC1)C(=O)NCC#N` were, in that order, 3.3 µM, 13 µM, 47 µM and 0.65 µM.
For `CC(C)(C)OC(=O)N[C@@H](Cc1ccccc1Br)C(=O)NCC#N`, the Ki at Cathepsin K was found to be 4.2 µM; at Papain, 0.46 µM; at Procathepsin L [2], 1.1 µM; on Cathepsin S, 0.61 µM.
Consider `CC(C)(C)OC(=O)N[C@@H](Cc1ccc2ccccc2c1)C(=O)NCC#N`, for which the inhibitory constant (Ki) at Cathepsin K came to 83 µM; on Papain, 0.021 µM; on Procathepsin L [2] it was 0.12 µM; on Cathepsin S, 0.083 µM.
The like results for `C=CCNC(=O)[C@H](Cc1ccccc1)NC(=O)OC(C)(C)C` were, in that order, over 1000 µM, 497 µM, over 1000 µM and over 100 µM.
For `N#CCNC(=O)CNC(=O)OCc1ccccc1` the same measures were over 1000 µM, 1600 µM, over 1000 µM and over 1000 µM.
On to `CC[C@H](NC(=O)OC(C)(C)C)C(=O)NCC#N`, for which the inhibitory constant (Ki) on Cathepsin K is 5 µM; at Papain it was 5.4 µM; at Procathepsin L [2] it was over 100 µM; on Cathepsin S it was 28 µM.
On to `N#CCNC(=O)[C@H](Cc1ccccc1)NC(=O)c1ccccc1`, for which the Ki came to 1.5 µM on Cathepsin K, 0.062 µM on Papain, 0.23 µM at Procathepsin L [2] and 0.077 µM at Cathepsin S.
